In patent US20250129135A1, “Multi-Agonist and Use Thereof” (priority 2021, published 2025):

Columns and labels:
C57 BL/6J DIO mice = test: In vivo pharmacodynamics in high-fat diet induced obesity (DIO) mice; parameters: species or system mouse; details: Mean±SEM; for Weight change: Table 6-1; for LDL-C / TC (total cholesterol) / TG (plasma triglycerides): Table 7-1
Text: High-fat diet induced obesity (DIO) mice have characteristics such as obesity, elevated blood sugar, insulin resistance, and lipid abnormalities, all of which are very significant metabolic syndromes similar to a human body. The effects of the compounds of the present application on body weight, food intake, blood sugar, and lipids in C57 BL/6J DIO mice were studied.
Obesity was induced in mice by feeding with a high-fat diet (60 kcal % of calories from fat). […] After grouping, one animal was raised in each cage for one week, during which each of the animals was injected subcutaneously (S.C.) with a solvent (1×PBS, 5 ml/kg) to pre-adapt the experimental operation process.
After the preparation of animals, vehicle control or compounds were administered to groups of animals by subcutaneous injection, in which the compounds were dissolved in 1×PBS, the dosage was 5 ml/kg, and the administration operation was started at 9:00 am and conducted once every three days (Q3D) for 15 days. Throughout the entire experimental study, animal weight and food intake were measured daily before administration, and compared with initial weight and food intake of the same animal before administration to calculate a percentage change in animal weight (%) and cumulative food intake, so as to evaluate the impact of compounds on changes in body weight and food intake.
At the end point of the experiment (Day 15), the body weight of the mice was measured, and then fasting blood glucose was measured by taking blood from the tail tip of broken tail without anesthesia. After the blood collection, the animals were anesthetized with CO2 and euthanized. Then, blood was taken from the heart and plasma was separated by centrifugation. The plasma was used to measure total cholesterol (TC), low-density lipoprotein cholesterol (LDL-C), triglycerides (TG), and blood insulin content. The liver was separated for homogenization, and then centrifuged to obtain the supernatant for determining triglyceride content in the liver.
All results were expressed in Mean±SEM, and the results were analyzed by one-way ANOVA using GraphPad Prism 5 software, followed by Dunnett's post hoc test compared to the Vehicle control group. The difference at the p<0.05 level was considered statistically significant.

3T3-L1 adipocytes = test system: 3T3-L1 adipocytes
Method in brief: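 Mouse 3T3-L1 preadipocytes were differentiated with IBMX, dexamethasone and insulin for 5 days, then insulin plus 10 uM rosiglitazone for 3 days, then 10% FBS medium for 2–3 days. Mature adipocytes received 10-point, 3-fold compound dilutions for 60 min at room temperature. cAMP was read by kit detection reagent after a further 60 min, with concentration-effect curves fitted.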

[1] = Rat pharmacokinetics (PK) study; assay type: in vivo; details: sc, male SD rats, subcutaneous 30 nmol/kg, plasma
Method: 7˜9 weeks old male SD rats (220-250 g, 3 rats/group) were subjected to subcutaneous injection of 30 nmol/kg compound. After administration, blood was collected through the jugular vein at time points 0.25, 2, 4, 8, 12, 16, 24, 48, 96, 120, and 144 hours. The blood was processed to obtain plasma samples and analyzed using LC-MS/MS. The blood concentration time curve was analyzed using Phoenix WinNonlin version 6.3 software (non compartment model), and PK parameters and half-life were calculated.

[2] = test system: human primary liver cells; assay type: cell-based
Method in brief: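 Human primary hepatocytes, thawed at 37° C and resuspended in HBSS, exposed to compound for 60 min at room temperature. Detection reagent then added for 60 min before cAMP readout.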

RIN-m5F cells = assay type: cell-based, rat
Method in brief: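 cAMP production measured in RIN-m5F cells resuspended in HBSS; compounds incubated 60 min at room temperature, then detection reagent added for a further 60 min before read-out.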

AUC(0-t) [1]: 6.69 µM·h
Cmax [1]: 149 nM
Tmax [1]: 21.3 h
half-life [1]: 19.1 h
EC50 [2]: 1.59 nM
EC50 (RIN-m5F cells): 0.4 nM
Structure (SMILES): CC[C@H](C)[C@H](NC(=O)[C@H](Cc1ccccc1)NC(=O)[C@H](C)NC(=O)C(C)(C)NC(=O)[C@H](CCC(N)=O)NC(=O)[C@H](C)NC(=O)[C@H](CCCCNC(=O)COCCOCCNC(=O)COCCOCCNC(=O)CC[C@H](NC(=O)CCCCCCCCCCCCCCCCCCC(=O)O)C(=O)O)NC(=O)[C@H](CCCCN)NC(=O)[C@H](CC(=O)O)NC(=O)[C@H](CC(C)C)NC(=O)[C@](C)(CC(C)C)NC(=O)[C@@H](NC(=O)[C@H](CO)NC(=O)[C@H](Cc1ccc(O)cc1)NC(=O)[C@H](CC(=O)O)NC(=O)[C@H](CO)NC(=O)[C@@H](NC(=O)[C@](C)(Cc1ccccc1)NC(=O)[C@@H](NC(=O)CNC(=O)[C@H](CCC(N)=O)NC(=O)C(C)(C)NC(=O)[C@@H](N)Cc1ccc(O)cc1)[C@@H](C)O)[C@@H](C)O)[C@@H](C)CC)C(=O)N[C@@H](CCC(=O)O)C(=O)N[C@@H](Cc1ccc(O)cc1)C(=O)N[C@@H](CC(C)C)C(=O)N[C@@H](CC(C)C)C(=O)N[C@@H](CCC(=O)O)C(=O)N[C@@H](CO)C(=O)N[C@@H](Cc1c[nH]cn1)C(=O)N1CCC[C@H]1C(=O)N[C@@H](CO)C(=O)N[C@@H](CO)C(=O)NCC(=O)N[C@@H](C)C(=O)N1CCC[C@H]1C(=O)N1CCC[C@H]1C(=O)NC1(C(=O)N[C@@H](CO)C(N)=O)CC1 [Compound 3]
Weight change (C57 BL/6J DIO mice; 3 nmol/kg s.c. Q3D for 15 days): −21.2 ± 0.75%
Weight change (C57 BL/6J DIO mice; 10 nmol/kg s.c. Q3D for 15 days): −32.4 ± 2.94%
Weight change (C57 BL/6J DIO mice; 30 nmol/kg s.c. Q3D for 15 days): −51.6 ± 1.21%
LDL-C (C57 BL/6J DIO mice; 3 nmol/kg, Day 15): 0.52 ± 0.033 mM
TC (total cholesterol) (C57 BL/6J DIO mice; 3 nmol/kg, Day 15): 3.42 ± 0.214 mM
TG (plasma triglycerides) (C57 BL/6J DIO mice; 3 nmol/kg, Day 15): 0.87 ± 0.066 mM
LDL-C (C57 BL/6J DIO mice; 30 nmol/kg, Day 15): 0.37 ± 0.035 mM
TC (total cholesterol) (C57 BL/6J DIO mice; 30 nmol/kg, Day 15): 2.15 ± 0.079 mM
TG (plasma triglycerides) (C57 BL/6J DIO mice; 30 nmol/kg, Day 15): 0.55 ± 0.022 mM
Blood sugar (fasting blood glucose) (C57 BL/6J DIO mice; Table 8-1, 3 nmol/kg, Day 15): 107.5 ± 5.17 mg/dL
Insulin (blood) (C57 BL/6J DIO mice; Table 8-1, 3 nmol/kg, Day 15): 25.4 ± 16.90 mIU/L
Liver TG (C57 BL/6J DIO mice; Table 9-1, 3 nmol/kg, Day 15): 32.2 ± 2.99 mg
EC50 (3T3-L1 adipocytes): 1.87 nM
